In patent publication US20180093308A1, “METHANOGENESIS CONTROL DURING ENVIRONMENTAL APPLICATIONS USING ANTIMETHANOGENIC REAGENTS” (Innovative Environmental Technologies, Inc, priority 2016, published 2018):

Tested on: Archaea
Test: Laboratory Study 4: methane concentration in control and test samples with AMRs
Assay type: cell-based
Protocol: Use of diallyl sulfide, which may be considered a synthetic garlic oil (GOS), was evaluated for its ability to control Archaea compared to the effects of other potential AMRs such as natural/pressed Garlic Oil (GO) and dehydrated Garlic Powder (GP). Control samples with and without contaminants were captured along with test samples that included contaminants and different concentrations (250 ppm and 500 ppm) of different AMRs (GO, GOS and GP). The concentration of methane in each of the samples was measured at 0, 9, 16 and 23 days.

## C=CCSCC=C [GOS, diallyl sulfide]
250 ppm and 500 ppm, 23 days incubation
  control response in terms of methane production: best control response
500 ppm lasting longer than 250 ppm
  length and magnitude of antimethanogenic responses: concentration dependent
